Test results from patent US11419856B2, “Pharmaceutical combinations for use in the treatment of neoplastic diseases” (Basilea Pharmaceutica International AG, priority 2017, dated 2022).

Assays:
[1] = system: microtubules (soluble vs polymerized tubulin), MDA-MB-231 cells; test: Cellular microtubule destabilization assay and immunoblotting for tubulin; format: cell-based, human; settings: 2 hours
Procedure: (§1) The following human cell line was used: MDA-MB-231 (ATCC: HTB-26). In addition the following enhanced green fluorescent protein (EGFP)-transfected human cell lines were used: NCI-H460 (ATCC: HTB-177) (H460GFP) and Jurkat (ATCC: TIB-152) (JurkatGFP). NCI-H460 and Jurkat cell lines were cultured in RPMI-1640 tissue culture medium containing 10% (v/v) fetal calf serum, 2 mM glutamine, non-essential amino acids and 50 μg/ml penicillin/streptomycin (Complete medium) (Sigma, Buchs, Switzerland). The MDA-MB-231 cell line was cultured in Dulbecco's Modified Eagle Medium (DMEM) (high glucose) tissue culture medium containing 10% (v/v) fetal calf serum, 1 mM sodium pyruvate and 50 μg/ml penicillin/streptomycin (i.e. Complete Medium) (Sigma, Buchs, Switzerland).
General growth conditions were 37° C. and 7.5% CO2. For the microtubule destabilization assay cell lines were cultured in 5% CO2.
Trypsinized MDA-MB-231 cells (500′000 cells per treatment) were treated in 1 mL medium containing BAL27862 and/or eribulin (Halaven®, Ch.-B. 60363CRN1, Eisai) or appropriate vehicle control (dimethylsulfoxide (DMSO)) for 2 hours in a water bath at 37° C. […]

NCI-H460-GFP cells = test: Apoptosis assay (EGFP/FACS) in NCI-H460-GFP cells; format: cell-based; settings: Homo sapiens, data not shown, read-out: EC50, induction of apoptosis
Procedure: as §1, with “The MDA-MB-231 cell line was cultured in Dulbecco's Modified Eagle Medium (DMEM) (high glucose) tissue culture medium containing 10% (v/v) fetal calf serum, 1 mM sodium pyruvate and 50 μg/ml penicillin/streptomycin (i.e. Complete Medium) (Sigma, Buchs, Switzerland).” left out
The assays were performed in commercially available sterile 96-well U-bottom or 24-well flat-bottom tissue culture plates (Falcon). […] For time course experiments with Jurkat cells, the 96-well plates were removed shortly at the indicated time from the incubator, shaken in order to suspend the cells and an aliquot of 200 μl cell suspension was then transferred to a 96-well U-bottom plate and measured immediately on a fluorescence-activated cell sorting (FACS)-Canto II with a high through-put sampler (HTS)-module. […]
The quantification of the relative amount of apoptotic cells within a cell population was determined according to the Reference of Strebel et al., Cytometry 2001, 43(2), Green Fluorescent Protein as Novel Tool to Measure Apoptosis and Necrosis). […] As a readout the relative abundance of the cells belonging to M2 (apoptotic population) were expressed.

N#CCCNc1nonc1-c1nc2ccccc2n1CC(=O)c1ccc(N)cc1 [BAL27862, 3-(4-{1-[2-(4-Amino-phenyl)-2-oxo-ethyl]-1H-benzoimidazol-2-yl}-furazan-3-ylamino)-propionitrile]
microtubule destabilizing activity (soluble vs particulate tubulin, Western blot) ([1]; single agent 20 and 30 nM (FIG. 5A)): concentration-dependent but incomplete destabilizing effect | EC50 (NCI-H460-GFP cells): 24 nM

C=C1C[C@@H]2CC[C@@]34C[C@H]5O[C@H]6[C@@H](O3)[C@H]3O[C@H](CC[C@@H]3O[C@H]6[C@H]5O4)CC(=O)C[C@@H]3[C@@H](OC)[C@@H](C[C@H](O)CN)O[C@H]3C[C@H]3O[C@@H](CC[C@@H]1O2)C[C@@H](C)C3=C.CS(=O)(=O)O [Eribulin, (2R, 3R, 3aS, 7R, 8aS, 9S, 10aR, 11S, 12R, 13aR, 13bS, 15S, 18S, 21S, 24S, 26R, 28R, 29aS)-2-[(2S)-3-Amino-2-hydroxypropyl]-3-methoxy-26-methyl-20,27-dimethylidenehexacosahydro-11,15:18,21:24,28-triepoxy-7,9-ethano-12,15-methano-9H,15H-furo[3,2-i]furo[2′,3′:5,6]pyrano[4,3-b][1,4]dioxacyclopentacosin-5(4H)-one methanesulfonate (salt)]
microtubule destabilizing activity (soluble vs particulate tubulin, Western blot) ([1]; single agent 0.2 nM and 2 nM): only a small increase in soluble tubulin | EC50 (NCI-H460-GFP cells): 1 nM
